Earlier results in patent publication US5849746A, “Substituted 1,4-piperazine-heteroaryl derivatives as 5-HT1D receptor agonists” (Merck Sharp & Dohme Ltd., priority 1995, dated 1998).

Columns and labels:
[1] = humans, therapeutic doses
[2] = tested on: human 5-HT1Dα and 5-HT1Dβ receptor subtypes; conditions: cf. WO-A-91/17174, Table 1

## CNS(=O)(=O)Cc1ccc2[nH]cc(CCN(C)C)c2c1 [sumatriptan]
[1]
  adverse cardiovascular events: certain adverse cardiovascular events
[2]
  discrimination between human 5-HT1Dα and 5-HT1Dβ receptor subtypes (in words): barely discriminates between the human 5-HT1Dα and 5-HT1Dβ receptor subtypes
